Experiment [1] relates to AA-induced platelet aggregation. Description: Platelet aggregation inhibition test (aggregometer), AA-induced. It is filed as cell-based, rat. The settings on record: for IC50: AA 30˜60×10^−6M with near-threshold collagen, rat adjusted PRP; for fold stronger activity than ASA on AA-induced aggregation: relative to ASA. Here is the method: (§1) 7 weeks-year old Sprgue-Dawley male white rat (240±20 g, Orient Bio Co. Ltd) was anesthetized with diethyl ether. The blood of rat was collected from heart using a syringe containing 2.2% sodium citrate (10% v/v) and centrifuged for 10 mins with the speed of 200×g and the supernatant (upper layer) of buffy coat was collected using by serum separator (Mediland Co. Ltd, 10×250 mm) to afford platelet rich plasma containing supematant(PRP). The residue was centrifuged at 1500×g for 15 min to obtain the platelet poor plasma (PPP) and the PRP was diluted with PPP to adjust the final platelet number in PRP to 4.0-4.5×10^8/ml. Platelet number was counted using a platelet counter (Excell 18 MWI, DANAM Electronics, USA) disclosed in the literature (Lee Y. Y. et al., Anti-platelet Aggregating and anti-oxidative activities of 11-O-(4′-O-Methylgalloy)-bergenin, A new compound isolated from Crassul cv. “Himaturi”, Planta Med., 71, pp 776-777).
(§2) An aliquote (500 μl) of platelet count adjusted PRP was preincubated for 3 minutes at 37° C. in an aggregometer (490-X optical aggregometer, Chrono-Log Corp, USA) with constant stirring at 1,000 rpm. 5 μl of ginsenoside solution was added followed by successive addition of aggregation inducing agent (5 μl) at an intervals of 30 s to incubate for 30 sec with stirring at the speed of 1100 rpm. Arachidonic acid (AA, Sigma, A8798), Thromboxane A2 (U46619, Sigma, D8174) and collagen (Chrono-Log, No. 385) were used as aggregation inducing agents at the concentration of 30˜60×10^−6M (AA), 2˜4×10^−6M (U46619) and 2˜4×10^−6 g/ml (collagen) respectively. Aspirin was used as a positive control. […] The aggregation induced by AA and U46619 was determined in presence of a near-threshold concentration (1.0-1.4 μg/ml and 0.8-1.2 μg/ml, respectively) of collagen that can only induce change in platelet shape but no aggregation.
(§3) Inhibition (%) was calculated as follows: Inhibition (%)=(1−maximal aggregation of sample-treated aPRP/maximal aggregation of vehicle-treated aPRP)×100 All experiments were performed in tripticates. IC50 values were calculated from the linear regression of the plot of mean values (n=3) of percent inhibition versus concentration of corresponding ginsenoside. Sigma Plot software was used for graphing. Regression equations were calculated using Regression Wizard from the Sigma Plot equation library.

Experiment [2] has as its system human plasma coagulation. Nature of the experiment: Anti-coagulation test, aPTT (activated partial thromboplastin time). It is filed as biochemical. Here is the method:
(§4) The inhibitory effect of the ginsenosides prepared in Examples on human plasma coagulation was determined by aPTT (activated partial thromboplastin time), PT(prothrombin time) and TT(thrombin time) tests.
(§5) Fresh freeze plasma was procured from the blood bank of Seoul National University Hospital (www.snuh.org) to use in the Anti-coagulation Test in human plasma.
To determine aPTT, 0.1 ml plasma treated with test samples was incubated at 37° C. for 2 mins and aPTT reagent (Diagnostica Stago, Cat. 0595) was added thereto to incubate for 3 mins. The coagulation time from the starting time of plasma coagulation with 0.1 ml of 20 mM calcium chloride solution to the ending time of plasma agglutination was determined using by fibrometer (BBL Fibrosystems, Fischer Scientific, USA).

Experiment [3] relates to human plasma coagulation. Nature of the experiment: Anti-coagulation test, TT (thrombin time). It is filed as biochemical. Here is the method:
as §4, §5
(§6) To determine PT and TT, 0.1 ml plasma treated with test samples in the case of PT and 0.2 ml plasma treated with test samples in the case of TT was incubated at 37° C. for 2 mins respectively. 2 ml of PT reagent (Diagnostica Stago, Cat. 0605) and TT reagent (Diagnostica Stago, Cat. 0611) were added thereto to incubate for 3 mins. The coagulation time from the starting time of plasma coagulation with 0.1 ml of 20 mM calcium chloride solution to the ending time of plasma agglutination was determined using by fibrometer (BBL Fibrosystems, Fischer Scientific, USA).

Experiment [4] has as its system U46619 (thromboxane A2 mimetic drug)-induced platelet aggregation. Nature of the experiment: Platelet aggregation inhibition test (aggregometer), U46619-induced. The experiment is classed as cell-based, rat. The following applies: for IC50: U46619 2˜4×10^−6M with near-threshold collagen, rat adjusted PRP. Here is the method: as §1, §2, §3
Experiment [5] concerns human plasma coagulation. Nature of the experiment: Anti-coagulation test, PT (prothrombin time). The experiment is classed as biochemical. On the procedure: as §4, §5, §6
For experiment [6], the system named is collagen-induced platelet aggregation. Nature of the experiment: Platelet aggregation inhibition test (aggregometer), collagen-induced. The experiment is classed as cell-based, rat. The following applies: for IC50: collagen 2˜4×10^−6 g/ml, rat adjusted PRP. On the procedure:
as §1, §2, §3

For experiment [7], the system named is rat platelet aggregation induced by ADP. Description: Modified smear method, ADP-induced platelet aggregation in PRP. The experiment is classed as cell-based. Further details: key: ++: full aggregation of platelet; +: intermediate aggregation of platelet; ±: slight aggregation of platelet; −: no aggregation of platelet. The settings on record: ADP 3.2 × 10^−6 M. Here is the method: (§7) The inhibitory effect of the ginsenosides prepared in Examples on the rat platelet aggregation was determined according to the procedure disclosed in the literature (Yun-Choi et al., Modified smear method for screening potential inhibitors of platelet aggregation from plant sources, J. Nat. Prod., 48(3), pp 363-370, 1985).
(§8) The blood of 7 weeks-year old Sprgue-Dawley rat (male, 240±20 g, Orient Bio Co. Ltd) was collected using a syringe containing 2.2% sodium citrate (10% v/v) and centrifuged for 10 mins with the speed of 200× g to collect platelet rich plasma containing supernatant(PRP). 0.16 ml of PRP was treated with 0.2 ml of SG, SGbu-1, and SGBu-2 as test samples and 0.2 ml of solutions of arachidonic acid (Sigma, A8798), ADP (Sigma, A4386) and collagen (Chrono-Log, No. 385) as platelet aggregation inducers (control group) to incubate for 4 mins at 37° C.
(§9) Thin Smear prepared from step 1-1 was stained and the intensity of platelet aggregation result was observed by microscopy method. The intensity of platelet aggregation result was divided into […] categories, i.e., “++”: full aggregation of platelet; “+”: intermediate aggregation of platelet; “±”: slight aggregation of platelet; “−”: no aggregation of platelet.

For experiment [8], the system named is rat platelet aggregation induced by arachidonic acid. Nature of the experiment: Modified smear method, arachidonic acid-induced platelet aggregation in PRP. The experiment is classed as cell-based. Further details: key: ++: full aggregation of platelet; +: intermediate aggregation of platelet; ±: slight aggregation of platelet; −: no aggregation of platelet. The settings on record: AA 4 × 10^−4 M. Here is the method: as §7, §8, §9

The test system of experiment [9] is rat platelet aggregation induced by collagen. Nature of the experiment: Modified smear method, collagen-induced platelet aggregation in PRP. The arrangement: key: ++: full aggregation of platelet; +: intermediate aggregation of platelet; ±: slight aggregation of platelet; −: no aggregation of platelet. The experiment is classed as cell-based. The settings on record: collagen 2 × 10^−5 g/ml. Here is the method:
as §7, §8, §9

Read-outs that look alike come from different tables or passages of the source.

For `CC(C)=CCC[C@](C)(O)[C@H]1CC[C@]2(C)[C@@H]1[C@H](O)C[C@@H]1[C@@]3(C)CC[C@H](O[C@@H]4O[C@H](CO)[C@@H](O)[C@H](O)[C@H]4O[C@@H]4O[C@H](CO)[C@@H](O)[C@H](O)[C@H]4O)C(C)(C)[C@@H]3CC[C@]12C` (racemic) [Racemic ginsenoside Rg3, ginsenoside Rg3], in experiment [1], the “inhibitory effect on AA-induced platelet aggregation (in words)” value was “exhibited inhibitory effect”.
Broadly, the IC50 is the concentration at which inhibition is half-maximal. The molecule `CC(C)=CCC[C@](C)(O)[C@H]1CC[C@]2(C)[C@@H]1[C@H](O)C[C@@H]1[C@@]3(C)CC[C@H](O[C@@H]4O[C@H](CO)[C@@H](O)[C@H](O)[C@H]4O[C@@H]4O[C@H](CO)[C@@H](O)[C@H](O)[C@H]4O)C(C)(C)[C@@H]3CC[C@]12C` [20(R)-ginsenosides Rg3, 20(R)-ginsenoside Rg3] came in with an aPTT in experiment [2] of 50.3 s. Further, the TT in experiment [3] amounted to 13.6 s. Further, the IC50 in experiment [1] was greater than 100 µM; in [4], 357 µM; in [6] it was 492 µM. Further, in experiment [1] (listed as 20(R)-Rg3), the “inhibitory effect on AA-induced platelet aggregation (in words)” value is “only poor platelet antiaggregating activity”. Moreover, in [4], the “inhibitory effect on U46619-induced platelet aggregation (in words)” value is on record as “inhibited”. This molecule also registered a PT in experiment [5] of 24.1 s. For the same molecule, the figures for the “inhibitory effect on collagen-induced platelet aggregation (in words)” value in experiment [6] and in [6] (listed as 20(R)-Rg3) were “inhibited” and “comparable to that of ASA”, respectively.
As to `CC(C)=CCC[C@](C)(O)[C@H]1CC[C@]2(C)[C@@H]1[C@H](O)C[C@@H]1[C@@]3(C)CC[C@H](O[C@@H]4O[C@H](CO)[C@@H](O)[C@H](O)[C@H]4O[C@@H]4O[C@H](CO)[C@@H](O)[C@H](O)[C@H]4O)C(C)(C)[C@@H]3CC[C@]12C` [20(S)-ginsenosides Rg3, 20(S)-ginsenoside Rg3], the aPTT in experiment [2] was found to be 57.2 s. The molecule also had a TT in experiment [3] of 12.9 s. For the same molecule, the “inhibitory effect on AA-induced platelet aggregation (in words)” value in [1] is reported as “relatively strong inhibitory effect”. For the same molecule, the IC50 is 53 µM in experiment [1], greater than 700 µM in experiment [4] and greater than 700 µM in experiment [6]. The PT in experiment [5] is 23.5 s.
Turning to `CC(=O)Oc1ccccc1C(=O)O` [Aspirin(ASP), Aspirin], the “intensity of platelet aggregation, inducer ADP” value in [7] (2.8 × 10^−3 M Aspirin) is given as “−”. In addition, the “intensity of platelet aggregation, inducer ADP (value in brackets)” value in experiment [7] (Aspirin (5.5 × 10^−3 M)) is listed as “±”. In experiment [8] (0.7 × 10^−3 M Aspirin), the “intensity of platelet aggregation, inducer AA” value is given as “−”. The “intensity of platelet aggregation, inducer AA (value in brackets)” value in experiment [8] (Aspirin (1.4 × 10^−3 M)) is given as “±”. Further, the IC50 amounted to 66 µM in experiment [1] (Platelet), 508 µM in [4] (Platelet) and 588 µM in [6] (Platelet). In addition, in [9] (1.4 × 10^−3 M Aspirin), the “intensity of platelet aggregation, inducer collagen” value is reported as “−”. Also, in [9] (Aspirin (2.8 × 10^−3 M)), the “intensity of platelet aggregation, inducer collagen (value in brackets)” value was “±”.
With `CC(C)=CC/C=C(\C)[C@H]1CC[C@]2(C)[C@@H]1[C@H](O)C[C@@H]1[C@@]3(C)CC[C@H](O[C@@H]4O[C@H](CO)[C@@H](O)[C@H](O)[C@H]4O[C@@H]4O[C@H](CO)[C@@H](O)[C@H](O)[C@H]4O)C(C)(C)[C@@H]3CC[C@]12C` [ginsenoside Rg5], the aPTT in experiment [2] stood at 66.0 s. This molecule also displayed a TT in experiment [3] of 14.1 s. Further, in experiment [1], 8 µM corresponded to half-maximal inhibition (IC50) and the “fold stronger activity than ASA on AA-induced aggregation” value was 8 fold. Moreover, the IC50 in [4] came out at 102 µM. In [5], this molecule came in with a PT of 28.1 s. For the same molecule, in experiment [6], the “inhibitory effect on collagen-induced platelet aggregation (in words)” value is “comparable to that of ASA” and the IC50 was determined as 409 µM.
In experiment [2], `C=C(CCC=C(C)C)[C@H]1CC[C@]2(C)[C@@H]1[C@H](O)C[C@@H]1[C@@]3(C)CC[C@H](O[C@@H]4O[C@H](CO)[C@@H](O)[C@H](O)[C@H]4O[C@@H]4O[C@H](CO)[C@@H](O)[C@H](O)[C@H]4O)C(C)(C)[C@@H]3CC[C@]12C` [ginsenoside Rk1] had an aPTT of 54.5 s. Besides, the TT in experiment [3] turned out to be 14.3 s. In experiment [1], the “inhibitory effect on AA-induced platelet aggregation (in words)” value is reported as “strongest inhibitory effect among four tested compounds”, the IC50 stood at 3 µM and the “fold stronger activity than ASA on AA-induced aggregation” value turned out to be 22 fold. Also, in [4], the “inhibitory effect on U46619-induced platelet aggregation (in words)” value is given as “strongest inhibitory effect among four tested compounds” and the IC50 came out at 78 µM. Also, the PT in experiment [5] amounted to 29.8 s. In addition, in experiment [6], the “inhibitory effect on collagen-induced platelet aggregation (in words)” value is listed as “strongest inhibitory effect among four tested compounds” and half-maximal inhibition (IC50) required 197 µM. In addition, in [6] (relative to ASA), the “fold higher activity than ASA on collagen-induced aggregation” value is given as 3 fold.

For the origin of these results see patent publication US20100028467A1, “Composition Comprising Ginsenosides Isolated From The Extract Of Processed Ginseng For Preventing And Treating Thrombotic Disease” (Ginseng Science, Inc., priority 2008, published 2010).
